Measured values published in publication PMC11641860 (International Journal of Molecular Sciences, 2024).

What was measured:
Caco-2 cells = test: cells; format: cell-based; conditions: Homo sapiens; Caco-2, treated for 24 h, mean (SE); read-out: calculated IC50
Method: (§1) To evaluate cell viability, an MTT assay was performed. […] Cell viability was directly proportional to registered absorbance and was expressed as relative viability with respect to vehicle-treated cells.

HEK 293 cells = test: cells; format: cell-based; conditions: Homo sapiens, HEK293; HEK 293, treated for 24 h, mean (SE); read-out: calculated IC50
Method: as §1

HaCat cells = test: cells; format: cell-based; conditions: Homo sapiens, treated for 24 h, mean (SE), read-out: calculated IC50
Method: as §1

HepG2 cells [1] = test: cells; format: cell-based; conditions: Homo sapiens; HepG2, treated for 24 h, mean (SE); read-out: calculated IC50
Method: as §1

MRC5 cells = test: cells; format: cell-based; conditions: Homo sapiens; MRC5, treated for 24 h, mean (SE); read-out: calculated IC50
Method: as §1

p53 = test: Western blot of p53; format: cell-based, human; conditions: HepG2, 24 h, higher concentrations used
Method: (§2) Western blot analyses were performed to detect protein levels and the expression of several proteins after treatments with 4-OP. After treatments, cells were mechanically harvested and lysed in a buffer containing the following: 20 mM Tris-HCl, pH 7.5, 150 mM NaCl, 1 mM EDTA, 1 mM dithiothreitol, 0.1% sodium dodecyl sulfate, 1% Triton X-100, 1 mM orthovanadate and an inhibitor cocktail (all from Merck). The protein mixtures were resolved in a polyacrylamide denaturant gel and then electrotransferred to a polyvinylidene difluoride (PVDF) membrane (Microtech, Naples, Italy) by using the Trans-Blot Turbo Transfer System (Bio-Rad Laboratories, Milan, Italy). After a blocking step with 5% skimmed milk in Tris-buffered saline (TBS), membranes were incubated with the following primary antibodies, diluted 1:1000 in T-TBS-1% milk: mouse anti-p53 (Santa Cruz, CA, USA); mouse anti-GRP78 (Invitrogen, Milan, Italy); rabbit anti-LC3 (Invitrogen); mouse anti-caspase 3 (Invitrogen); mouse anti-p62 (Invitrogen); rabbit anti-SOD (Elabscience, Houston, TX, USA); rabbit anti-CAT (Elabscience). For normalization, a mouse anti-GAPDH (Santa Cruz) diluted 1:4000 in T-TBS-1% milk was used.

HepG2 cells [2] = test: Apoptosis: cleaved caspase 3 Western blot and TUNEL assay; format: cell-based, human; conditions: HepG2, caspase-3 8 h, TUNEL 24 h
Method: as §2
Microscope observation and image acquisition were performed as described above.

XBP1 = XBP1 splicing detection by conventional PCR; format: cell-based, human; conditions: HepG2, 4 h, 100 μM
Method: To obtain cDNA, 1 μg of RNA was retro-transcribed employing the QuantiTect Reverse Transcription Kit (Qiagen, Milan, Italy). Finally, a conventional PCR was performed to amplify the unspliced and the spliced form for XBP1, with the following primers: 5′-[…]-3′ and 5′-[…]-3′, as previously reported. Amplified cDNA was run on a 2.5% agarose gel and stained with ethidium bromide.

GRP78 [3] = test: Western blot of GRP78 in HepG2 cells; format: cell-based, human; conditions: HepG2, 24 h, higher induction at 100 μM
Method: as §2

GRP78 [4] = test: Western blot of GRP78 in MRC5 cells; format: cell-based, human; conditions: MRC5, 24 h
Method: as §2

GRP78 [5] = test: Western blot of GRP78 in Caco-2 cells; format: cell-based, human; conditions: Caco-2, 24 h
Method: as §2

p62, LC3-II = test: Western blot of autophagic markers p62 and LC3-II; format: cell-based, human
Method: as §2

HepG2 cells [6] = test: LC3 immunofluorescence staining; format: cell-based, human; conditions: HepG2, 24 h, compared with vehicle
Method: Then, coverslips were incubated for 1 h with the anti-LC3 rabbit antibody (1:100, in 1% bovine albumin serum) and then with an anti-rabbit tetramethylrhodamine-conjugated antibody (1:100, in 0.1% bovine serum albumin) (Thermo Fisher Scientific). After washing, coverslips were mounted with Mowiol and observed with an Olympus CKX41 fluorescent microscope (Olympus Italia srl, Segrate, Italy) and processed with the Olympus CKX41 software (cellSens Dimension 1.5).

CAT, SOD = test: Western blot of CAT and SOD; format: cell-based, human
Method: as §2

type 2 transglutaminase = test: Type 2 transglutaminase activity in Caco-2 cells in Ca2+-free condition; format: cell-based, human; conditions: Caco-2, Ca2+-free condition, preliminary
Source text: It has often been reported that apoptosis induced by EDCs can be caused by an unsolved ER-stress.

## CCCCCCCCCc1ccc(O)cc1 [4-NP, 4-nonylphenol]
Caco-2 cells
  IC50: 93.3 µM
HEK 293 cells
  IC50: 62.6 µM
HaCat cells
  IC50: 77.4 µM
HepG2 cells [1]
  IC50: 83.3 µM
MRC5 cells
  IC50: 75.8 µM

## CCCCCCCCc1ccc(O)cc1 [4-OP, 4-octylphenol]
p53
  p53 expression: decreased
HepG2 cells [2]
  apoptosis (cleaved caspase 3, chromatin fragmentation): able to induce apoptosis
XBP1
  XBP1 spliced form: splicing was clear
GRP78 [3]
  GRP78 expression: increase in a dose-dependent manner
GRP78 [4]
  GRP78 expression: markedly induced
GRP78 [5]
  GRP78 expression: less evident
p62, LC3-II; HepG2, 4 h
  p62 level: decreased
p62, LC3-II; HepG2, 4 h 4-OP then further 20 h Baf A1 50 nM
  LC3-II level on adding Baf A1: further accumulation of LC3-II
p62, LC3-II; HepG2, 24 h
  LC3-II level: increased
HepG2 cells [6]
  autophagosomes (LC3 perinuclear puncta): accumulation of autophagosomes
CAT, SOD; HepG2, 4 h
  CAT level: did not vary
CAT, SOD; HepG2, 4 h, 100 μM
  SOD level: reduction
CAT, SOD; HepG2, 18 h, 25 μM, vs vehicle-treated cells
  SOD expression level: lower
CAT, SOD; HepG2, 18 h, 50 μM
  SOD expression level: increased
CAT, SOD; HepG2, 18 h, 50 μM, compared to the control
  CAT protein level: significantly more expressed

## C[C@H](CCC(=O)O)C[C@H](C)C[C@H](C)C(=O)/C=C(\O)[C@H](C)C[C@H](C)C/C=C/[C@@H](C)[C@@H](O)[C@@H](C)[C@@H](O)C[C@@H]1CC[C@@](C)([C@H]2CC[C@@](C)([C@@H](C)O)O2)O1 [ionomycin]
Type 2 transglutaminase
  increase of transglutaminase activity: did not increase
